Patent US3935309A, “Synergistic combinations of phosphonomycin and bacteriostatic agents” (Merck & Co., Inc., priority 1974, dated 1976)

Test system: bacterial cell wall
Experiment: mode of action on bacteria
Format: cell-based
Excerpt: In accordance with one embodiment of this invention, pathogenic bacteria are controlled by concomitantly contacting these pathogens with phosphonomycin and a bacteriostatic chemotherapeutic agent. The action of the phosphonomycin is to potentiate, augment or synergise the activity of the bacteriostatic agent. This potentiation of the bacteriostats is indeed unexpected since the bacteriostatic agents have an entirely different mode of action than phosphonomycin. […] Thus, phosphonomycin is indeed unique among antibiotics in that it is capable of potentiating the important bacteriostatic chemotherapeutic agents.

C[C@@H]1O[C@@H]1P(=O)(O)O [Phosphonomycin, (-) (cis-1,2-epoxypropyl)phosphonic acid]
mode of action: bactericidal in action | spheroplasts (certain bacterial strains exposed to the antibiotic): detection of spheroplasts
